Results reported in patent US20100204134A1, “USE OF THE PEPTIDE HIS-SER-LEU-GLY-LYS-TRP-LEU-GLY-HIS-PRO-ASP-LYS-PHE ALONE OR IN COMBINATION WITH THE PEPTIDE GLY-ARD-GLY-ASP-ASN-PRO-OH AS A THERAPEUTIC AGENT” (priority 2007, published 2010).
No end group written: not given here.

Experiments:
[1] = test system: Primary Human endothelial cells (HUVEC); assay: Endothelial cell migration assay; assay type: cell-based; conditions: 10 micrograms per ml; 22 hours
Protocol: Primary Human endothelial cells (HUVEC) were seeded in insert chambers with 3 micrometer pore size of multi-transwell plate for 6 hours at 37° C. in Endothelial Cell Basal Medium (EBM) supplemented with 0.1% bovine serum albumin. Thereafter, designated concentration of test peptides—10 micrograms per ml—was added in duplicate wells. The endothelia were allowed to migrate for 22 hours at 37° C., then, migrated cells were fixed and stained with Hoechst 33342 dye. Images of 3 fields per insert were taken and the number of migrated cells per field were quantified using the ImageProPlus software. Data were analyzed for the average number of the migrated cells and standard deviation of six data points for each treatment condition. […] Statistic p values were computed using the Student's t-test.

[2] = test system: HCMV strain AD169; assay: HCMV plaque formation assay; conditions: MRC-5 cells; for inhibition of HCMV plaque formation as compared to the virus control: 10 micrograms per ml, 7-10 days
[3] = test system: Streptococcus pneumoniae; assay: Streptococcus pneumoniae assay; conditions: 10 micrograms per ml; 5×10^5 CFU/mL
[4] = test system: murine spleen cells; assay: Th1/Th2 cytokine profiling assay; conditions: 10 micrograms per ml; Ovalbumin restimulation; 72 hours
Description: The Balb/c mice (originated in 1923, it is a popular strain and is used in many different research disciplines. Also classified as an inbred from the production of 20 or more successive brother-sister matings, the Balb/c mouse is albino and small in size) were immunized on Days 1, 15, and 29 with Ovalbumin (Ovalbumin is the main protein found in egg white, commonly used to stimulate an immunological reaction in test animals) in PBS (5 micrograms/injection). On day 50, spleens of the mice were harvested (3 weeks after last boost with Ovalbumin). […] Thereafter, additional Ovalbumin was added to the cells at 10 micrograms/ml for in vitro restimulation of the cells. 72 hours later, cell supernatants were harvested and assayed using the Becton Dickinson Mouse Th1/Th2 Cytokine CBA Kit. This kit can be used to measure Interleukin-2 (IL-2), Interleukin-4 (IL-4), Interleukin-5 (IL-5), Interferon-γ (IFN-γ), and Tumor Necrosis Factor-α (TNF-α) protein levels in a single sample.

[5] = test system: HUVEC; assay: Endothelial tube formation assay; conditions: 10 micrograms per ml; 20 hours
Protocol: The endothelial tube formation assay is based on the ability of endothelial cells to form three-dimensional capillary-like tubular structures when cultured on a gel of basement membrane extract. […] Pre-labeled HUVEC with Calcein AM were seeded in a 96-well culture plate coated with extracellular metrix (Chemicon international Cat. ECM625) and treated with test peptides—10 micrograms per ml—in full growth medium. Positive control was vehicle only. The endothelial cells were allowed to form tubes for 20 hours and were then examined under an inverted fluorescent microscope. Duplicate wells for each treatment were photographed and quantitatively analyzed for an average tubule length using image analysis software ImageProPlus. Raw data were expressed as average tubule lengths in pixels ±standard deviation. Statistic p values were computed using the Student's t-test.

[6] = test system: HIV-1IIIB; assay: HIV-1 antiviral assay in CEM-SS cells; assay type: cell-based
[7] = test system: hepatitis B virus (HBV) ayw strain; assay: HBV experimental assay system (secreted HBV DNA, TaqMan PCR); assay type: cell-based; conditions: 10 micrograms per ml; HepG2-2.2.15; six days; HBV DNA in supernatant

With “His-Ser-Leu-Gly-Lys-Trp-Leu-Gly-His-Pro-Asp-Lys-Phe (HSLGKWLGHPDKF; printed: His-Ser-Leu-Gly-Lys-Trp-Leu-Gly-His-Pro-Asp-Lys-Phe) [Peptide 1]” the “inhibition of the migration of human endothelial cells” value [1] was 12%, the “inhibition of HCMV plaque formation as compared to the virus control” value [2] was “did not inhibit” and the “inhibition of the growth of Streptococcus pneumoniae” value [3] was 100%. For the same molecule, the “change of the production of IFN-γ” value [4] was “did not significantly change”, the “change of the production of IL-5” value [4] was “did not significantly change” and the “induction of the production of IL-2” value [4] was 106.5%. The “induction of the production of IL-4” value [4] was 117.8%, the “induction of the production of TNF-alpha” value [4] was 21.2% and the “inhibition of the tube formation of human endothelial cells” value [5] was 10%.
With `Cc1cn([C@H]2C[C@H](N=[N+]=[N-])[C@@H](CO)O2)c(=O)[nH]c1=O` [AZT] the “antiviral activity of positive control compounds” value [6] was “expected levels of antiviral activity”.
`Nc1nc(O)c2ncn(COC(CO)CO)c2n1` [Ganciclovir, reference compound] was tested, and the “antiviral activity of positive control compound” value ([2]; positive control, HCMV) was “expected levels of antiviral activity”.
“Gly-Arg-Gly-Asp-Asn-Pro-OH (GRGDNP-OH) [Peptide 2]” was tested, and the “inhibition of HBV replication as compared to the virus control infection” value [7] was 36.4%, the “inhibition of HCMV plaque formation as compared to the virus control” value [2] was “did not inhibit” and the “inhibition of the growth of Streptococcus pneumoniae” value [3] was 100%. The “change of the production of IFN-γ” value [4] was “did not significantly change”, the “change of the production of IL-5” value [4] was “did not significantly change” and the “induction of the production of IL-2” value [4] was 58.8%. For the same molecule, the “induction of the production of IL-4” value [4] was 55.6%, the “induction of the production of TNF-alpha” value [4] was 23.7% and the “increase of the tube formation of endothelial cells” value [5] was 6%.
`CC(C)(C)NC(=O)[C@@H]1CN(Cc2cccnc2)CCN1C[C@@H](O)C[C@@H](Cc1ccccc1)C(=O)N[C@H]1c2ccccc2C[C@H]1O` [indinavir] was tested, and the “antiviral activity of positive control compounds” value [6] was “expected levels of antiviral activity”.
